Test system: liver metastasis of a breast carcinoma
Assay: treatment of the individual patient chosen according to the test results
Format: in vivo, human
Excerpt: Biopsy material of a liver metastasis of a breast carcinoma has been obtained from a patient.

Compound | tumor marker CA15.3 after treatment (before treatment 22,230 units/ml, infused in two-weeks intervals according to standard protocols) [units] | malignant ascites (infused in two-weeks intervals) | tumor markers in controls (100 mg)
CCc1c2c(nc3ccc(OC(=O)N4CCC(N5CCCCC5)CC4)cc13)-c1cc3c(c(=O)n1C2)COC(=O)[C@]3(O)CC [Irinotecan] | 1513 | markedly reduced | 
Keytruda: PDL Antibody therapy |  |  | did not change tumor markers
